One data set deals with HEK293 cells. The experiment in a line: In vitro cytotoxicity (CellTiter-Glo). Format: cell-based, human. The following applies: cell viability, 0.005-33 μM. The method, then:
Following NanoBRET substrate addition and NanoBRET measurements, to the same wells an equal volume of CellTiter-Glo reagent (Promega) was added and the plates were incubated for 30 min at room temperature. Total luminescence was measured, and relative compound toxicity was determined by comparing the RLUs (relative light units) of a sample containing DMSO vehicle (in the absence of compound 11) to the RLUs of the samples containing 0.005–33 μM compound 11.
A general note: Cellular ATP, detected with luciferase, serves as a proxy for viable cell number.

The target in a further data set is T1, BRDT(2) (Homo sapiens, UniProt Q58F21).
T1 construct: made in house
Briefly: Protein stability (thermal) shift assay, BRDT(2). Format: binding. The following applies: compound 10 μM, protein 2 μM; average of triplicate; read-out: ΔTm Shift, BRDT(2).

A further data set addresses T2, full length BRD4 (Homo sapiens, UniProt O60885).
T2 construct: NanoLuc-fused full length BRD4 (UniProt code O60885); expressed in transfected cells; host or cells: HEK293
The experiment in a line: NanoBRET assay, NanoLuc-BRD4 full-length / histone H3.3-HaloTag in HEK293 cells. It counts as cell-based. The following applies: up to 33 μM, 18 h. As for the experimental part:
Twenty hours post-transfection 2 × 10^4 cells were trypsinized, washed with PBS, and exchanged into media containing phenol red-free DMEM, 10% FBS in the absence (control sample), or the presence (experimental sample) of 100 nM NanoBRET 618 fluorescent ligand (Promega). Cell density was adjusted to 2 × 10^5 cells/mL and then replated in a 96-well assay white plate (Corning Costar no. 3917). At the time of replating compound 7d or 11 were added at a final concentration spanning from 0.005 to 33 μM and the plates were incubated for 18 h at 37 °C in the presence of 5% CO2. NanoBRET substrate (Promega) was added to both control and experimental samples at a final concentration of 10 μM. Readings were performed within 5 min using the CLARIOstar reader (BMG Lifetechnologies) equipped with 450/80 nm bandpass and 610 nm long-pass filters. A corrected BRET ratio was calculated and is defined as the ratio of the emission at 610 nm/450 nm for experimental samples (i.e., those treated with NanoBRET fluorescent ligand) subtracted by and the emission at 610 nm/450 nm for control samples (not treated with NanoBRET fluorescent). BRET ratios are expressed as milliBRET units (mBU), where 1 mBU corresponds to the corrected BRET ratio multiplied by 1000.
A general note: In BRET a luciferase serves as donor, and the signal depends on an acceptor being close.

Another data set has as its target T3, BRDT(1) (Homo sapiens, UniProt Q58F21).
T3 construct: made in house
Briefly: Protein stability (thermal) shift assay, BRDT(1). The following applies: compound 10 μM, protein 2 μM; average of triplicate. It counts as binding.

Another data set addresses T4, BRD4(1) (Homo sapiens, UniProt O60885).
T4 construct: made in house
The experiment in a line: Isothermal titration calorimetry, BRD4(1). Format: binding. The following applies: for Kd / TΔS / ΔG / N (stoichiometry) / ΔHobs: ITC; for LE (ligand efficiency): LE = ΔG/N, N number of non-hydrogen atoms. As for the experimental part: (§1) Experiments were carried out on an ITC200 titration microcalorimeter from MicroCal, LLC (GE Healthcare) equipped with a Washing module, with a cell volume of 0.2003 mL, and a 40 μL microsyringe. Experiments were carried out at 15 °C while stirring at 1000 rpm, in ITC buffer (50 mM HEPES, pH 7.5 (at 25 °C), 150 mM NaCl). The microsyringe was loaded with a solution of the protein sample (300−740 μM protein for BRD9 and BRD4(1), respectively, in ITC buffer) and was carefully inserted into the calorimetric cell which was filled with an amount of the ligand (0.2 mL, 20–25 μM in ITC buffer). The system was first allowed to equilibrate until the cell temperature reached 15 °C, and an additional delay of 60 s was applied. All titrations were conducted using an initial control injection of 0.3 μL followed by 38 identical injections of 1 μL with a duration of 2 s (per injection) and a spacing of 120 s between injections. The titration experiments were designed in such a fashion as to ensure complete saturation of the proteins before the final injection. The heat of dilution for the proteins was independent of their concentration and corresponded to the heat observed from the last injection, following saturation of ligand binding, thus facilitating the estimation of the baseline of each titration from the last injection. The collected data were corrected for protein heats of dilution (measured on separate experiments by titrating the proteins into ITC buffer) and deconvoluted using the MicroCal Origin software supplied with the instrument to yield enthalpies of binding (ΔH) and binding constants (KB) in the same fashion as that previously described in detail by Wiseman and co-workers.[66] Thermodynamic parameters were calculated using the basic equation of thermodynamics (ΔG = ΔH – TΔS = −RT ln KB, where ΔG, ΔH, and ΔS are the changes in free energy, enthalpy, and entropy of binding, respectively). In all cases a single binding site model was employed, supplied with the MicroCal Origin software package.

The target of a further data set is T5, BRD3(2) (Homo sapiens, UniProt Q15059).
T5 construct: made in house
The experiment in a line: Protein stability (thermal) shift assay, BRD3(2). Format: binding. The following applies: compound 10 μM, protein 2 μM; average of triplicate.

The target of a further data set is T6, BRD2(1) (Homo sapiens, UniProt P25440).
T6 construct: Fragments were tested in a thermal shift assay against bromodomains of the BET subfamily; made in house
Briefly: Protein stability (thermal) shift assay, BRD2(1). Format: binding. The following applies: compound 10 μM, protein 2 μM; average of triplicate.

For the next data set, the target named is T7, PB1(5) (Homo sapiens, UniProt Q86U86).
T7 construct: made in house
The experiment in a line: Protein stability (thermal) shift assay, PB1(5). The following applies: compound 10 μM, protein 2 μM; average of triplicate. Format: binding.

In the next data set the target is T8, BRD3(1) (Homo sapiens, UniProt Q15059).
T8 construct: Fragments were tested in a thermal shift assay against bromodomains of the BET subfamily; made in house
Briefly: Isothermal titration calorimetry, BRD3(1). Format: binding. The following applies: for LE (ligand efficiency): LE = ΔG/N, N number of non-hydrogen atoms. As for the experimental part:
as §1

Where [1] appears, read: 50 mM HEPES pH 7.5, 150 mM NaCl, 15 °C, reverse titration, triplicate, read-out: KD.
Setting [2] is: read-out: dissociation constant.

SMILES strings stand for the structures. Several values for one entry are separate records, joined by “and”; a condition that tells them apart may be missing. Equal entries are not always repeated. Entries after “also recorded” stand apart in the source; their conditions may differ. Where two headings read alike, the source gives them in different places.

T8 sequence (Q15059 34-140 limits assumed): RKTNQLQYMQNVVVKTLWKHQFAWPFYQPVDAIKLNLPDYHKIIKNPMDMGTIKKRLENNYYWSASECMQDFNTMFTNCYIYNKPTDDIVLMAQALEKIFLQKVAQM
T7 sequence (Q86U86 653-763 limits assumed): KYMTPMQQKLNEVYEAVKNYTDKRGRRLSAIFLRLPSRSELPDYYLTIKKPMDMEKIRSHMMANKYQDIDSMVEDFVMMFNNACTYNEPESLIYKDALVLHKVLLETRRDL
T5 sequence (Q15059 306-415 limits assumed): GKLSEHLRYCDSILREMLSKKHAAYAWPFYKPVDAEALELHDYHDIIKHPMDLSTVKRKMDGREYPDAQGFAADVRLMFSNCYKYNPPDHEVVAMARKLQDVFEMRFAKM
T6 sequence (P25440 74-180 limits assumed): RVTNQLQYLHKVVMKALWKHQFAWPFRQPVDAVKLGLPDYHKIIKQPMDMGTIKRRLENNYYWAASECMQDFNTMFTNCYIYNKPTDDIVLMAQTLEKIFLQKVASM

With `Nc1nc(-c2cc(Br)cc3c2OCC3)c2nc[nH]c2n1` [Compound 11, 2-Amino-6-(5-bromo-2,3-dihydrobenzo[b]furan-7-yl)-9H-purine], in the data set on HEK293 cells, the “cytotoxicity toward HEK293 cells (in words)” value was “did not observe any cytotoxicty; also recorded: not cytotoxic; also recorded: not toxic”. For the same molecule, the ΔTm at 10 µM on BRDT(2) was 4 °C; on BRDT(1), 1.7 °C; on BRD3(2), 5.4 °C; at BRD2(1) it was 2.8 °C; on PB1(5) it was 0.8 °C. The “displacement of full-length BRD4 from histone H3.3 (in words)” value at full length BRD4 is “fail to elicit the same effect; also recorded: not completely displaced; also recorded: failing to displace”. Besides, the Kd at BRD4(1) (setting [1]) was 1.37 ± 0.029 µM; on BRD4(1) (setting [2]) it was 1.4 µM and 1.37 µM. In addition, the TΔS was determined as 1.34 kcal/mol at BRD4(1) (15 °C) and 0.33 kcal/mol on BRD3(1) (ITC, 15 °C). The ΔG entry at BRD4(1) (15 °C) is “–7.73 kcal/mol”; on BRD3(1) (ITC, 15 °C) it was “–7.50 kcal/mol”. The “N (stoichiometry)” value at BRD4(1) (15 °C, reverse titration) was 1.09 ± 0.002; at BRD3(1) (ITC, 15 °C, reverse titration), 1.01 ± 0.009. The ΔHobs result on BRD4(1) (15 °C, reverse titration) was “–6.39 ± 0.02 kcal/mol”; at BRD3(1) (ITC, 15 °C, reverse titration) it was “–7.17 ± 0.09 kcal/mol”. Further, the “LE (ligand efficiency)” value stood at 0.39 on BRD4(1) and 0.38 at BRD3(1).
For `COc1ccc(Br)cc1-c1nc(N)nc2[nH]cnc12` [Compound 7d, 2-Amino-6-(5-bromo-2-methoxyphenyl)-9H-purine], in the data set with HEK293 cells, the “cytotoxicity toward HEK293 cells (in words)” value is “not cytotoxic”. Besides, the ΔTm at 10 µM is 1.8 °C on BRDT(2); 0.0286 °C on BRDT(1); 0.7 °C on BRD3(2); 2.5 °C on BRD2(1); 1.6 °C at PB1(5). Moreover, the “displacement of full-length BRD4 from histone H3.3 (in words)” value at full length BRD4 is given as “fail to elicit the same effect; also recorded: not completely displaced; also recorded: failing to displace”. The Kd at BRD4(1) (setting [1]) was 4.65 ± 0.197 µM; on BRD4(1) (setting [2]), 4.7 µM and 4.65 µM; at BRD3(1) (ITC, 50 mM HEPES pH 7.5, 150 mM NaCl, 15 °C, reverse titration, triplicate) it was 2040 ± 105 nM. In addition, the TΔS at BRD4(1) (15 °C) is given as 0.94 kcal/mol; on BRD3(1) (ITC, 15 °C), 0.33 kcal/mol. The ΔG result is “–7.03 kcal/mol” on BRD4(1) (15 °C) and “–7.50 kcal/mol” at BRD3(1) (ITC, 15 °C). Moreover, the “N (stoichiometry)” value worked out at 0.99 ± 0.018 on BRD4(1) (15 °C, reverse titration) and 1.01 ± 0.009 on BRD3(1) (ITC, 15 °C, reverse titration). Further, the ΔHobs result was “–6.09 ± 0.14 kcal/mol” at BRD4(1) (15 °C, reverse titration) and “–7.17 ± 0.09 kcal/mol” on BRD3(1) (ITC, 15 °C, reverse titration). Also, the “LE (ligand efficiency)” value is on record as 0.37 at BRD4(1) and 0.39 on BRD3(1).
